Here are results for 12 compounds from patent US20150274664A1 (MERCK SHARP & DOHME CORP., priority 2012, published 2015).

The target of the experiment is T1, human GPR119 (Homo sapiens, UniProt Q8TDV5).
T1 construct: expressed in transfected cells; host or cells: HEK293
T1 sequence (Q8TDV5 1-335): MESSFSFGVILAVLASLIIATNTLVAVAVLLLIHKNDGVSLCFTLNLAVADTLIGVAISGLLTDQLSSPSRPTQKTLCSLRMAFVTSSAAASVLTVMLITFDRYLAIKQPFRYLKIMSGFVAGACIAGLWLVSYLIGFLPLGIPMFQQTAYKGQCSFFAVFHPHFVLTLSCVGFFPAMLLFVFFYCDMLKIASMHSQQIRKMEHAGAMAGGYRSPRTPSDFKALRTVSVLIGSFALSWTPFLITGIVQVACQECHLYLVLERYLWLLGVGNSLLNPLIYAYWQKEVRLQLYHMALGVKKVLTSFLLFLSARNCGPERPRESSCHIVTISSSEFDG
Briefly: Measurement of GPR119 signaling using LANCE 384-well cAMP kit (LCMP assay). The following applies: HEK293 cells stably transfected with human GPR119. Type of experiment: cell-based. The procedure:
Measurement of GPR119 Signaling Using LANCE 384-Well cAMP Kit (LCMP Assay)
Human embryonic kidney (HEK) 293 cell lines stably transfected with human GPR119 were maintained in DMEM media containing FBS, penicillin-streptomycin, HEPES, and hygromycin. For the cAMP assay, the transfected cells were harvested using a non-enzymatic cell dissociation solution (GIBCO 2672), pelleted and resuspended in stimulation buffer (DMEM, 25 mM Hepes, 0.1% BSA, pH 7.4 in the presence of 100 μM phosphodiesterase inhibitors). The adenylate cyclase assay was constructed following the LANCE™ cAMP Kit (Perkin Elmer, AD0264) instructions. Briefly, cells with Alexa Fluor® 647-anti cAMP antibody were incubated with 10 point series diluted test article in stimulation buffer with a final concentration of 2.5% DMSO for 45 minutes. The reaction was stopped by incubating with the supplied detection buffer containing the europium chelate of the Eu-SA/Biotin-cAMP tracer for 3 hours. The assay was performed in duplicate in a 384 well plate for duplicate plates. Fluorescence at 665 nm was measured using a PHERAstar instrument. Basal activity was determined using a DMSO control and maximum response was defined as cAMP stimulation produced by an internal agonist control. Standard cAMP concentrations were assayed concurrently for conversion of fluorescence signal to cAMP level. The data was analyzed using 4-parameter curve fit in Microsoft Excel.
A general note: In TR-FRET formats the signal depends on donor and acceptor labels being close together.
Usually EC50 stands for the concentration needed to bring the measured effect to its halfway point. For `CS(=O)(=O)c1ccc(OCC[C@H]2C[C@@H]2C2CCN(c3ncc(Cl)cn3)CC2)nc1` [Example 109, 5-chloro-2-(4-((1R,2R)-2-(2-(5-(methylsulfonyl)pyridin-2-yloxy)ethyl)cyclopropyl)piperidin-1-yl)pyrimidine], the midpoint of the response, the EC50, lay at 22 nM.

With `CCc1cnc(N2CCC([C@@H]3C[C@H]3CCOc3cc(F)c(CC(=O)N(C)C)c(F)c3)CC2)nc1` [Example 49, 2-(4-(2-((1S,2S)-2-(1-(5-ethylpyrimidin-2-yl)piperidin-4-yl)cyclopropyl)ethoxy)-2,6-difluorophenyl)-N,N-dimethylacetamide], the EC50 turned out to be 0.7 nM.

`CC1(OC(=O)N2CCC([C@@H]3C[C@H]3CCOc3ccc(S(C)(=O)=O)c(F)c3)CC2)CC1` [Example 94, 1-methylcyclopropyl 4-((1S,2S)-2-(2-(3-fluoro-4-(methylsulfonyl)phenoxy)ethyl)cyclopropyl)piperidine-1-carboxylate] had an EC50 of 23 nM.

Consider `CCc1cnc(N2CCC([C@@H]3C[C@H]3CCOc3ccc(S(=O)(=O)CC)cc3F)CC2)nc1` [Example 32, 5-ethyl-2-(4-((1S,2S)-2-(2-(4-(ethylsulfonyl)-2-fluorophenoxy)ethyl)cyclopropyl)piperidin-1-yl)pyrimidine], for which the EC50 stood at 18 nM.

`CS(=O)(=O)c1ccc(OCC[C@@H]2C[C@H]2C2CCN(c3ncc(Cl)cn3)CC2)cc1F` [Example 24, 5-chloro-2-(4-((1S,2S)-2-(2-(3-fluoro-4-(methylsulfonyl)phenoxy)ethyl)cyclopropyl)piperidin-1-yl)pyrimidine] came in with an EC50 of 8.3 nM.

Compound `CC1(OC(=O)N2CCC([C@H]3C[C@@H]3CCOc3ccc(CC(=O)N4CCC4)cc3F)CC2)CC1` [Example 98, 1-methylcyclopropyl 4-((1R,2R)-2-(2-(4-(2-(azetidin-1-yl)-2-oxoethyl)-2-fluorophenoxy)ethyl)cyclopropyl)piperidine-1-carboxylate] had an EC50 of 6.3 nM. This EC50 and that of the compound before are within 1.5-fold of each other.

Compound `CN(C)C(=O)Cc1ccc(OCC[C@H]2C[C@@H]2C2CCN(C(=O)OC3(C)CC3)CC2)cc1F` [Example 100, 1-methylcyclopropyl 4-((1R,2R)-2-(2-(4-(2-(dimethylamino)-2-oxoethyl)-3-fluorophenoxy)ethyl)cyclopropyl)piperidine-1-carboxylate] returned an EC50 of 5.5 nM. This EC50 and that of the compound before are within 1.5-fold of each other.

For the compound `CCc1cnc(N2CCC([C@@H]3C[C@H]3CCOc3ccc(CC(=O)N4CCC4)c(F)c3)CC2)nc1` [Example 36, 1-(azetidin-1-yl)-2-(4-(2-((1S,2S)-2-(1-(5-ethylpyrimidin-2-yl)piperidin-4-yl)cyclopropyl)ethoxy)-2-fluorophenyl)ethanone], the EC50 amounted to 5.5 nM.

The compound `CCc1cnc(N2CCC([C@@H]3C[C@H]3CCOc3ccc(S(C)(=O)=O)cc3F)CC2)nc1` [Example 26, 5-ethyl-2-(4-((1S,2S)-2-(2-(2-fluoro-4-(methylsulfonyl)phenoxy)ethyl)cyclopropyl)piperidin-1-yl)pyrimidine] gave an EC50 of 9.4 nM. Against the preceding compound, the EC50 is about 1.7-fold higher.

`CC(C)c1noc(N2CCC([C@H]3C[C@@H]3CCOc3ccc(-n4cnnn4)cc3F)CC2)n1` [Example 68, 5-(4-((1R,2R)-2-(2-(2-fluoro-4-(1H-tetrazol-1-yl)phenoxy)ethyl)cyclopropyl)piperidin-1-yl)-3-isopropyl-1,2,4-oxadiazole]: the EC50 stood at 3.5 nM.

In turn, `CCc1cnc(N2CCC([C@@H]3C[C@H]3CCOc3ccc(-n4cnnn4)c(F)c3)CC2)nc1` [Example 39, 5-ethyl-2-(4-((1S,2S)-2-(2-(3-fluoro-4-(1H-tetrazol-1-yl)phenoxy)ethyl)cyclopropyl)piperidin-1-yl)pyrimidine] yielded an EC50 of 8.7 nM.

`COCc1cnc(N2CCC([C@H]3C[C@@H]3CCOc3ccc(CC(=O)N4CCC4)cc3F)CC2)nc1` [Example 63, 1-(azetidin-1-yl)-2-(3-fluoro-4-(2-((1R,2R)-2-(1-(5-(methoxymethyl)pyrimidin-2-yl)piperidin-4-yl)cyclopropyl)ethoxy)phenyl)ethanone] yielded an EC50 of 15 nM. Compared with the last compound, the EC50 is about 1.7-fold higher.
